Results as given in patent publication EP0877061A1, “TRIPHENYLBORANE-ROSIN AMINE ADDUCT AND USE OF THE SAME” (Yoshitomi Fine Chemicals, Ltd., priority 1996, dated 1997).

System: hydrozoas
Test: Experimental Example 1: effect of antifouling agent for a fishnet, nets immersed in the sea off Konbumori in Hokkaido
Type: in vivo
Settings: conclusion from Table 3
Excerpt: The antifouling agents for […] shown in Examples 3-10 and Comparative Examples 1 and 2 were respectively applied to Tetoron unknotted nets (1000/26, 3 sun mesh) by immersion and air-dried. The nets were retained at about 15 meters underwater in the sea off Konbumori in Hokkaido for 4 months from August 1995. The adhesion organisms were mostly hydrozoas. As Comparative Example 3, the evaluation results without a treatment with an antifouling agent for a […] shown. • Evaluation A: Area of fouling of […], 0%, no adhesion organisms. • Evaluation B: Area of fouling of […], 0-10%, small amount of adhesion organisms to the extent practically acceptable. • Evaluation C: Area of fouling of […], 10-50%, great amount of adhesion organisms, unpractical as a […]. • Evaluation D: Area of fouling of […], 50% or more, markedly greater amount of adhesion organisms.

Substance: triphenylborane-dehydroabiethylamine adduct [Example 1]
- antifouling effect against coelenterates such as hydrozoas and obelia (in words): extremely strong, long-lasting and practical antifouling effect
